Results taken from US20250000842A1, “Formulation of Resiniferatoxin” (Sorrento Therapeutics, Inc., priority 2017, published 2025).

Test: Solubility comparison: recovery of RTX by HPLC after ambient and cold (5° C.) storage in various solutions
Type: physicochemical
Conditions: unmodified aqueous solution
Description: Independently of the formulations described in Example 1, a group of 12 surfactants was tested to compare the recovery of RTX based on HPLC analysis of samples following ambient and cold (5° C.) storage.

## C=C(C)[C@]12C[C@@H](C)[C@@]34O[C@](Cc5ccccc5)(O[C@@H]1[C@@H]3C=C(COC(=O)Cc1ccc(O)c(OC)c1)C[C@]1(O)C(=O)C(C)=C[C@@H]41)O2 [RTX, resiniferatoxin]
  solubility in water (in words): insolubility in water
